Holding throughout (assay): relative viability (nuclei count vs DMSO), 5 days (fraction); higher = more cells survive
Compound in the assay “FH535 + Palbociclib”: CC1=C(C=CC(=C1)[N+](=O)[O-])NS(=O)(=O)C2=C(C=CC(=C2)Cl)Cl [FH535] + CC(=O)c1c(C)c2cnc(Nc3ccc(N4CCNCC4)cn3)nc2n(C2CCCC2)c1=O [Palbociclib] (partner 0.5 µM)
In short, it runs like this:
(§1)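 Five library-drug doses in √10 steps were combined with a fixed anchor-drug dose, or a single drug was given alone, by pin tool to lung cancer cell lines in 1536-well plates the day after seeding. Nuclei were stained and counted after 5 days. Relative viability is the nuclei count in treated wells over that in vehicle wells, taken as the median of duplicate plates.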

Compound in the assay “FH535 + Luminespib”: CC1=C(C=CC(=C1)[N+](=O)[O-])NS(=O)(=O)C2=C(C=CC(=C2)Cl)Cl [FH535] + CCNC(=O)c1noc(-c2cc(C(C)C)c(O)cc2O)c1-c1ccc(CN2CCOCC2)cc1 [Luminespib] (partner 0.01 µM)
Summed up:
as §1

Compound in the assay “FH535 + Linsitinib”: CC1=C(C=CC(=C1)[N+](=O)[O-])NS(=O)(=O)C2=C(C=CC(=C2)Cl)Cl [FH535] + C[C@]1(O)C[C@@H](c2nc(-c3ccc4ccc(-c5ccccc5)nc4c3)c3c(N)nccn32)C1 [Linsitinib] (partner 1 µM)
In short, it runs like this: as §1

Compound in the assay “FH535 + AZD7762”: CC1=C(C=CC(=C1)[N+](=O)[O-])NS(=O)(=O)C2=C(C=CC(=C2)Cl)Cl [FH535] + NC(=O)Nc1cc(-c2cccc(F)c2)sc1C(=O)N[C@H]1CCCNC1 [AZD7762] (partner 0.2 µM)
Summed up: as §1

Compound in the assay “FH535 + Olaparib”: CC1=C(C=CC(=C1)[N+](=O)[O-])NS(=O)(=O)C2=C(C=CC(=C2)Cl)Cl [FH535] + O=C(c1cc(Cc2n[nH]c(=O)c3ccccc23)ccc1F)N1CCN(C(=O)C2CC2)CC1 [Olaparib] (partner 8 µM)
In short, it runs like this: as §1

Turning to NCI-H1975, the relative viability in the assay with FH535 + Palbociclib (first compound 0.04 µM) was 0.627; with FH535 + Palbociclib (first compound 0.1265 µM) it was 0.403; in the assay with FH535 + Palbociclib (first compound 0.4 µM), 0.481; in the assay with FH535 + Palbociclib (first compound 1.265 µM), 0.474; with FH535 + Luminespib (first compound 0.04 µM), 0.178; with FH535 + Luminespib (first compound 0.1265 µM), 0.22. Besides, the relative viability in the assay with FH535 + Luminespib (first compound 0.4 µM) stood at 0.164; with FH535 + Luminespib (first compound 1.265 µM), 0.167; in the assay with FH535 + Linsitinib (first compound 0.04 µM) it was 0.95; in the assay with FH535 + Linsitinib (first compound 0.1265 µM), 0.986; with FH535 + Linsitinib (first compound 0.4 µM) it was 0.925; with FH535 + Linsitinib (first compound 1.265 µM), 0.784. For the same cell line, the relative viability in the assay with FH535 + AZD7762 (first compound 0.04 µM) stood at 0.638; in the assay with FH535 + AZD7762 (first compound 0.1265 µM), 0.793; with FH535 + AZD7762 (first compound 0.4 µM) it was 0.591; in the assay with FH535 + AZD7762 (first compound 1.265 µM), 0.554; in the assay with FH535 + Olaparib (first compound 0.04 µM), 0.868; in the assay with FH535 + Olaparib (first compound 0.1265 µM), 0.877. The values for the relative viability with FH535 + Olaparib (first compound 0.4 µM) and with FH535 + Olaparib (first compound 1.265 µM) were 0.718 and 0.624, respectively.

For the cell line NCI-H1993, the relative viability with FH535 + Palbociclib (first compound 0.04 µM) worked out at 0.651; with FH535 + Palbociclib (first compound 0.1265 µM) it was 0.661; with FH535 + Palbociclib (first compound 0.4 µM), 0.592; in the assay with FH535 + Palbociclib (first compound 1.265 µM) it was 0.415; with FH535 + Luminespib (first compound 0.04 µM), 0.87; with FH535 + Luminespib (first compound 0.1265 µM) it was 0.736. Also, the relative viability with FH535 + Luminespib (first compound 0.4 µM) was 0.55; with FH535 + Luminespib (first compound 1.265 µM) it was 0.449; with FH535 + Linsitinib (first compound 0.04 µM), 0.703; with FH535 + Linsitinib (first compound 0.1265 µM) it was 0.734; in the assay with FH535 + Linsitinib (first compound 0.4 µM), 0.673; with FH535 + Linsitinib (first compound 1.265 µM), 0.745. The relative viability with FH535 + AZD7762 (first compound 0.04 µM) was 0.927; in the assay with FH535 + AZD7762 (first compound 0.1265 µM) it was 0.704; with FH535 + AZD7762 (first compound 0.4 µM), 0.626; in the assay with FH535 + AZD7762 (first compound 1.265 µM), 0.532; in the assay with FH535 + Olaparib (first compound 0.04 µM), 0.941; with FH535 + Olaparib (first compound 0.1265 µM), 1.03. Besides, the relative viability in the assay with FH535 + Olaparib (first compound 0.4 µM) worked out at 0.983; in the assay with FH535 + Olaparib (first compound 1.265 µM) it was 0.581.

In the case of NCI-H2085, the relative viability in the assay with FH535 + Palbociclib (first compound 0.04 µM) is 0.507; in the assay with FH535 + Palbociclib (first compound 0.1265 µM), 0.45; with FH535 + Palbociclib (first compound 0.4 µM), 0.448; with FH535 + Palbociclib (first compound 1.265 µM), 0.365; in the assay with FH535 + Luminespib (first compound 0.04 µM) it was 0.333; with FH535 + Luminespib (first compound 0.1265 µM), 0.481. The relative viability with FH535 + Luminespib (first compound 0.4 µM) stood at 0.41; with FH535 + Luminespib (first compound 1.265 µM) it was 0.268; in the assay with FH535 + Linsitinib (first compound 0.04 µM) it was 0.858; with FH535 + Linsitinib (first compound 0.1265 µM) it was 0.924; with FH535 + Linsitinib (first compound 0.4 µM), 0.892; in the assay with FH535 + Linsitinib (first compound 1.265 µM), 0.724. Moreover, the relative viability with FH535 + AZD7762 (first compound 0.04 µM) turned out to be 1.03; in the assay with FH535 + AZD7762 (first compound 0.1265 µM), 1.06; with FH535 + AZD7762 (first compound 0.4 µM), 0.783; with FH535 + AZD7762 (first compound 1.265 µM) it was 0.828; in the assay with FH535 + Olaparib (first compound 0.04 µM), 0.818; in the assay with FH535 + Olaparib (first compound 0.1265 µM), 0.713. Further, the relative viability with FH535 + Olaparib (first compound 0.4 µM) was determined as 0.749; with FH535 + Olaparib (first compound 1.265 µM), 0.571.

Turning to NCI-H2087, the relative viability with FH535 + Palbociclib (first compound 0.04 µM) was determined as 0.23; with FH535 + Palbociclib (first compound 0.1265 µM) it was 0.176; with FH535 + Palbociclib (first compound 0.4 µM) it was 0.21; with FH535 + Palbociclib (first compound 1.265 µM), 0.158; with FH535 + Luminespib (first compound 0.04 µM), 0.178; in the assay with FH535 + Luminespib (first compound 0.1265 µM), 0.141. In addition, the relative viability with FH535 + Luminespib (first compound 0.4 µM) was 0.147; in the assay with FH535 + Luminespib (first compound 1.265 µM), 0.191; with FH535 + Linsitinib (first compound 0.04 µM), 0.98; with FH535 + Linsitinib (first compound 0.1265 µM), 0.994; with FH535 + Linsitinib (first compound 0.4 µM), 0.87; with FH535 + Linsitinib (first compound 1.265 µM), 0.512. Also, the relative viability amounted to 1.24 with FH535 + AZD7762 (first compound 0.04 µM); 1.21 with FH535 + AZD7762 (first compound 0.1265 µM); 1.17 in the assay with FH535 + AZD7762 (first compound 0.4 µM); 0.78 in the assay with FH535 + AZD7762 (first compound 1.265 µM); 0.391 with FH535 + Olaparib (first compound 0.04 µM); 0.553 in the assay with FH535 + Olaparib (first compound 0.1265 µM). For the same cell line, the relative viability amounted to 0.516 in the assay with FH535 + Olaparib (first compound 0.4 µM) and 0.378 with FH535 + Olaparib (first compound 1.265 µM).

For the cell line NCI-H2126, the relative viability with FH535 + Palbociclib (first compound 0.04 µM) is 0.352; in the assay with FH535 + Palbociclib (first compound 0.1265 µM), 0.329; in the assay with FH535 + Palbociclib (first compound 0.4 µM), 0.363; with FH535 + Palbociclib (first compound 1.265 µM), 0.322; with FH535 + Luminespib (first compound 0.04 µM) it was 0.841; with FH535 + Luminespib (first compound 0.1265 µM) it was 0.919. Besides, the relative viability turned out to be 0.868 with FH535 + Luminespib (first compound 0.4 µM); 0.514 with FH535 + Luminespib (first compound 1.265 µM); 0.746 with FH535 + Linsitinib (first compound 0.04 µM); 0.719 with FH535 + Linsitinib (first compound 0.1265 µM); 0.705 with FH535 + Linsitinib (first compound 0.4 µM); 0.619 in the assay with FH535 + Linsitinib (first compound 1.265 µM). For the same cell line, the relative viability with FH535 + AZD7762 (first compound 0.04 µM) was determined as 0.973; in the assay with FH535 + AZD7762 (first compound 0.1265 µM) it was 1.05; with FH535 + AZD7762 (first compound 0.4 µM), 0.857; with FH535 + AZD7762 (first compound 1.265 µM), 0.874; in the assay with FH535 + Olaparib (first compound 0.04 µM) it was 0.928; with FH535 + Olaparib (first compound 0.1265 µM) it was 0.896. For the same cell line, the relative viability in the assay with FH535 + Olaparib (first compound 0.4 µM) was determined as 0.822; with FH535 + Olaparib (first compound 1.265 µM), 0.525.

The values above are taken from the supplement of paper PMC10307832.
